The values that follow come from publication PMC3466060 (2011).

The subject of the test is 3′-Fl-AM1A-(18)-Rhd (RNA, riboswitch) GAGGGUGGAACCGCGCUUCGGCGUCCCUC
The test is described as follows: FRET binding titration. As to conditions: 50 mM NaCl, 5 mM MgCl2.

Each structure is given as a SMILES string. Bounds are passed on as bounds.

For `O=C(Cc1ccccc1)OCC1OC(=O)NC1CN1CCN(c2ccccc2)CC1` (racemic), the Kd (in general, the equilibrium constant for the complex coming apart) is over 100 µM.
